Test results reported in BindingDB's records for doi:10.1002/cmdc.200500017 (2006).

molecular target: T1, Fatty-acid amide hydrolase 1 [30-579] (Rattus norvegicus, UniProt P97612); assay: FAAH Inhibition Assay
T1 construct: 30-579
T1 sequence (P97612 whole entry): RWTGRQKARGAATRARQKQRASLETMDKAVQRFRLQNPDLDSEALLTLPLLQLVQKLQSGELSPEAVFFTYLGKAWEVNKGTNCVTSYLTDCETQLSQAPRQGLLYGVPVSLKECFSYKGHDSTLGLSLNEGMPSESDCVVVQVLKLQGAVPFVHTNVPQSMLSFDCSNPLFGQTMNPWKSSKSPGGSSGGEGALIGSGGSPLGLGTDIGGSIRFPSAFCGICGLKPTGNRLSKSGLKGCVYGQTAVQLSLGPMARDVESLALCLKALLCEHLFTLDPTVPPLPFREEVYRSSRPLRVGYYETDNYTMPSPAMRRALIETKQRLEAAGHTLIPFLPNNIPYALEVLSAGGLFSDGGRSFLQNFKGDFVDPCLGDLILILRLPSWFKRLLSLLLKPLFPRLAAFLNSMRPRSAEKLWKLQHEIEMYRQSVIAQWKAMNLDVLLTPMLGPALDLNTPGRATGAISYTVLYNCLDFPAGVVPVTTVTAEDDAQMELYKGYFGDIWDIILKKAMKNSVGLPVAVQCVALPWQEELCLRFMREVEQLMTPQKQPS
Protocol: Membrane fractions were prepared from Wistar rat brain homogenates, and FAAH activity were assayed by using [3H]anandamide (anandamide[ethanolamine-3H], 60 Cimmol-1, from American Radiolabeled Chemicals, St. Louis, USA) as a substrate.

| Compound | IC50 [µM] |
| --- | --- |
| O=C(NC1CCCCC1)Oc1ccc([N+](=O)[O-])c(-c2ccccc2)c1 [FAAH Inhibitor, 2c] | > 30 |
| Nc1ccc(OC(=O)NC2CCCCC2)cc1-c1ccccc1 [FAAH Inhibitor, 2d] | 0.052 |
| NC(=O)c1ccc(OC(=O)NC2CCCCC2)cc1-c1ccccc1 [FAAH Inhibitor, 2e] | 0.252 |
| O=C(NC1CCCCC1)Oc1ccc(CO)c(-c2ccccc2)c1 [FAAH Inhibitor, 2h] | 0.046 |
| O=C(NC1CCCCC1)Oc1ccc2ccn(-c3ccccc3)c2c1 [FAAH Inhibitor, 2k] | 1.03 |
| O=C(NC1CCCCC1)Oc1ccc(O)c(-c2ccccc2)c1 [FAAH Inhibitor, 2g] | 0.045 |
| O=C(NC(=O)c1ccc(OC(=O)NC2CCCCC2)cc1-c1ccccc1)NC1CCCCC1 [FAAH Inhibitor, 2j] | 2.74 |
| CN(C)c1ccc(OC(=O)NC2CCCCC2)cc1-c1ccccc1 [FAAH Inhibitor, 2i] | 1.59 |
| O=C(NC1CCCCC1)Oc1cccc(Oc2cccc(-c3ccccc3)c2)c1 [FAAH Inhibitor, 2l] | 2.74 |
| O=C(NC1CCCCC1)Oc1cc(-c2ccccc2)ccc1[N+](=O)[O-] [FAAH Inhibitor, 2a] | > 30 |
| Cc1ccc(OC(=O)NC2CCCCC2)cc1-c1ccccc1 [FAAH Inhibitor, 2f] | 0.176 |
| Nc1ccc(-c2ccccc2)cc1OC(=O)NC1CCCCC1 [FAAH Inhibitor, 2b] | 4.83 |
